Test [1] concerns MNT1 human melanoma cells. The experiment in a line: Melanogenesis inhibition assay (14C-thiouracil incorporation). The note with it: MNT-1, 24 h at 37° C., 14C incorporation standardized through 3H incorporation. In kind it is cell-based. The protocol: (§1) The inhibition of melanogenesis is measured in MNT1 human melanoma cells according to a protocol adapted from Reigner et al., Cell Mol Biol (1999) 45: 969-980. The assay is based on the concomitant incorporation of 2 radiolabelled tracers: ^14C-thiouracil is incorporated into the neosynthesized melanin and reflects melanogenesis, whereas ^3H-leucine is incorporated into the proteins and reflects cell viability and, consequently, the toxicity of the compounds tested.
(§2) The MNT1 cells are seeded into 96-well plates in the presence of the test compounds and of the radioisotopes. After incubation for 24 h at 37° C., the cells are washed and the amount of the 2 radioisotopes is measured. The test compounds are evaluated in terms of dose-response so as to calculate an IC50 for inhibition of melanogenesis on the basis of the ^14C incorporation which is standardized through the ^3H incorporation. An IC50 for cell toxicity is also calculated on the basis of the ^3H incorporation.

The test system of test [2] is MNT1 human melanoma cells. Nature of the test: Cell toxicity (3H-leucine incorporation) in the melanogenesis assay. In kind it is cell-based. Conditions: MNT-1, 24 h at 37° C. The protocol:
as §1, §2

A further test deals with tyrosinase (Mus musculus (Mouse), UniProt P11344). The experiment in a line: Tyrosinase activity inhibition assay (B16F1 cell lysate). In kind it is biochemical, murine. Conditions: lysate of B16F1 cells, L-tyrosine substrate, MBTH, reading at 520 nm after 6 hours at 37° C.; read-out: Tyrosine hydroxylase/ Dopa oxidase IC50. Here is the method:
The activity of the inhibitors is measured using a lysate of B16F1 cells (murine melanoma line). In the presence of the L-tyrosine substrate, the tyrosinase present in these cells catalyses the hydroxylation of L-tyrosine to give L-DOPA and then the oxidation of the L-DOPA to give dopaquinone. In the presence of MBTH (3-methyl-2-benzothiazolinone hydrazone), the dopaquinone is trapped so as to form a pink complex which absorbs at 520 nm.
The B16F1 cells are cultured in DMEM medium+10% foetal calf serum+10^−9 M α-MSH for 4 days at 37° C. under 7% CO2. They are treated with trypsin, washed in PBS, counted and pelleted. The pellet is taken up at 10^7 cells/ml in lysis buffer (10 mM sodium phosphate, pH 6.8-1% Igepal) and the suspension is treated with ultrasound for 10 seconds. After centrifugation for 30 minutes at 4000 rpm, the supernatant obtained constitutes the cell lysate used as tyrosinase source in the enzymatic assay.
The assays are carried out in duplicate in 384-well plates in a total volume of 50 μl. […]
The plate is incubated at 37° C. and a spectrophotometric reading is carried out at 520 nm after 6 hours of incubation. In order to avoid any possible absorption of the products, the system uses corrected absorbance (absorbance at time 6 h—absorbance at time zero). […]

tyrosinase, sequence (P11344 19-533): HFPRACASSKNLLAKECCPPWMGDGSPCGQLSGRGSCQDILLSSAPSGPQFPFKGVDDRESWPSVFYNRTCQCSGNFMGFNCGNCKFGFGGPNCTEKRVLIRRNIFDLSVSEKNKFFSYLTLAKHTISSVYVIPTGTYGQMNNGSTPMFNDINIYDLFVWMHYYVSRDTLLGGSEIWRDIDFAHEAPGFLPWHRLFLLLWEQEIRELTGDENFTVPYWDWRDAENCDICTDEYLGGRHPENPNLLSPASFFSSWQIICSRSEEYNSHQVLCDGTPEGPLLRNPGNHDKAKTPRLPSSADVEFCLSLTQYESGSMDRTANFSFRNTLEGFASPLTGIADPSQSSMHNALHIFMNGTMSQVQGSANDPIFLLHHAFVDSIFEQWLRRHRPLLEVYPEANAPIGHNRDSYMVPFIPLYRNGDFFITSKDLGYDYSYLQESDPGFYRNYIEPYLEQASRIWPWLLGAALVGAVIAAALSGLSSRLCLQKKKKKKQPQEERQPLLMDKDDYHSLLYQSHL

With `CCCCc1ccc(O)cc1O` [4-Butylresorcinol (Rucinol), 4-Butylresorcinol, reference compound], the IC50 is 15000 nM in test [1] and 55000 nM in test [2].

With `C[C@H](NC(=O)N1CCC(c2ccc(O)cc2O)CC1)c1ccccc1` [Compound 24, 4-(2,4-dihydroxyphenyl)piperidine-1-carboxylic acid ((S)-1-phenylethyl)amide], the IC50 in test [1] was 300 nM; in test [2], > 999000 nM; on tyrosinase, 150 nM.

Take `O=C([C@@H](O)c1ccccc1)N1CCC(c2ccc(O)cc2O)CC1` [Compound 48, (S)-1-[4-(2,4-dihydroxyphenyl)piperidin-1-yl]-2-hydroxy-2-phenylethanone]: the IC50 in test [1] was 700 nM; in test [2], > 999000 nM; at tyrosinase, 200 nM.

(Values after patent US8993596B2, “4-(azacycloalkyl)benzene-1,3-diol compounds as tyrosinase inhibitors, process for the preparation thereof and use thereof in human medicine and in cosmetics” (Galderma Research & Development, priority 2008, dated 2015).)
